According to the supplement of paper PMC7285287:
Structures can show the parent of a compound that is named as a salt. ± gives the standard deviation of the averaged measurements.

Tested on: Candida albicans SNY425 biofilm
Assay: biofilm OD600 relative to DMSO control (fraction of DMSO control); higher = more biofilm (less inhibition)
Procedure: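 C. albicans SNY425 biofilm optical density assays (OD600 of the adhered biofilm after media removal) in RPMI-MOPS pH 7.0 at 37 °C with shaking. Groups of 4 to 8 wells per compound are averaged and normalised to the average of DMSO loading control wells. Adherence inhibition was tested at 10 and 40 µM, sustained inhibition and disruption at 40 µM, and the MBIC series at 200 to 0.78 µM.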

[1] = 10 µM, assay detail: adherence inhibition, 96-well, compound during 90 min adherence only
[2] = 40 µM, assay detail: adherence inhibition, 96-well, compound during 90 min adherence only
[3] = 40 µM, assay detail: disruption, 384-well, compound added to 24 h mature biofilm for further 24 h
[4] = 40 µM, assay detail: sustained inhibition, 384-well, compound during adherence and 24 h growth
[5] = 0.78 µM, assay detail: sustained inhibition (MBIC series), 384-well, compound during adherence and 24 h growth
[6] = 3.125 µM, assay detail: sustained inhibition (MBIC series), 384-well, compound during adherence and 24 h growth
[7] = 12.5 µM, assay detail: sustained inhibition (MBIC series), 384-well, compound during adherence and 24 h growth
[8] = 50 µM, assay detail: sustained inhibition (MBIC series), 384-well, compound during adherence and 24 h growth
[9] = 200 µM, assay detail: sustained inhibition (MBIC series), 384-well, compound during adherence and 24 h growth

For `CC1OC1P(=O)(O)O` (centres undefined) [fosphomycin], the “biofilm OD600” value [1] was 0.972, the “biofilm OD600” value [2] was 1.04 and the “biofilm OD600” value [3] was 1.01 ± 0.019. The “biofilm OD600” value [4] was 0.982 ± 0.011.
In the case of `N[C@@H](Cc1cc(I)c(Oc2ccc(O)c(I)c2)c(I)c1)C(=O)O` [liothyronine sodium], the “biofilm OD600” value [1] is reported as 1.14, the “biofilm OD600” value [2] is reported as 1.15 and the “biofilm OD600” value [3] is reported as 0.989 ± 0.05. The “biofilm OD600” value [4] was 0.96 ± 0.021.
With `Cc1cccc(Nc2ccccc2C(=O)O)c1C` [mefenamic acid] the “biofilm OD600” value [5] was 1.02, the “biofilm OD600” value [6] was 1.01 and the “biofilm OD600” value [1] was 0.973. The “biofilm OD600” value [7] was 0.958, the “biofilm OD600” value [2] was 0.93 and the “biofilm OD600” value [3] was 0.875 ± 0.038. The “biofilm OD600” value [4] was 0.905 ± 0.011, the “biofilm OD600” value [8] was 0.875 and the “biofilm OD600” value [9] was 0.714.
With `CCN(CC)C(=O)C1(c2ccccc2)CC1CN` (centres undefined) [milnacipran hydrochloride] the “biofilm OD600” value [1] was 0.934, the “biofilm OD600” value [2] was 0.943 and the “biofilm OD600” value [3] was 0.977 ± 0.026. For the same compound, the “biofilm OD600” value [4] was 0.962 ± 0.018.
With `CCCCCCCCCCCCCCCCOP(=O)([O-])OCC[N+](C)(C)C` [miltefosine] the “biofilm OD600” value [5] was 0.9, the “biofilm OD600” value [6] was 0.9 and the “biofilm OD600” value [1] was 0.99. The “biofilm OD600” value [7] was 1.08, the “biofilm OD600” value [2] was 0.844 and the “biofilm OD600” value [3] was 1.09 ± 0.035. The “biofilm OD600” value [4] was 0.222 ± 0.015, the “biofilm OD600” value [8] was 0.298 and the “biofilm OD600” value [9] was 0.259.
`O=C(O)c1cccnc1` [niacin] was tested, and the “biofilm OD600” value [1] was 0.913, the “biofilm OD600” value [2] was 0.91 and the “biofilm OD600” value [3] was 1.016 ± 0.002. For the same compound, the “biofilm OD600” value [4] was 0.967 ± 0.024.
With `Cc1c(NC(=O)c2cccnc2)c(=O)n(-c2ccccc2)n1C` [nifenazone] the “biofilm OD600” value [1] was 0.927, the “biofilm OD600” value [2] was 0.919 and the “biofilm OD600” value [3] was 1.004 ± 0.0086. The “biofilm OD600” value [4] was 0.968 ± 0.065.
For `COCCOC(=O)C1=C(C)NC(C)=C(C(=O)OC(C)C)C1c1cccc([N+](=O)[O-])c1` (centres undefined) [nimodipine], the “biofilm OD600” value [5] was 1.07, the “biofilm OD600” value [6] was 1.06 and the “biofilm OD600” value [1] was 0.942. For the same compound, the “biofilm OD600” value [7] was 1.01, the “biofilm OD600” value [2] was 0.821 and the “biofilm OD600” value [3] was 0.91 ± 0.029. For the same compound, the “biofilm OD600” value [4] was 0.984 ± 0.043, the “biofilm OD600” value [8] was 0.987 and the “biofilm OD600” value [9] was 1.27.
For `COC(=O)C1=C(C)NC(C)=C(C(=O)OCC(C)C)C1c1ccccc1[N+](=O)[O-]` (centres undefined) [nisoldipine], the “biofilm OD600” value [5] was 0.962, the “biofilm OD600” value [6] was 1.01 and the “biofilm OD600” value [1] was 0.914. The “biofilm OD600” value [7] was 0.989, the “biofilm OD600” value [2] was 0.888 and the “biofilm OD600” value [3] was 1.01 ± 0.051. The “biofilm OD600” value [4] was 0.65 ± 0.077, the “biofilm OD600” value [8] was 0.549 and the “biofilm OD600” value [9] was 0.397.
In the case of `O=C1CN(/N=C/c2ccc([N+](=O)[O-])o2)C(=O)N1` [nitrofurantoin], the “biofilm OD600” value [1] is reported as 1.08, the “biofilm OD600” value [2] is reported as 1.04 and the “biofilm OD600” value [3] is reported as 0.999 ± 0.035. For the same compound, the “biofilm OD600” value [4] was 0.999 ± 0.011.
In the case of `Cc1cc2c(s1)Nc1ccccc1N=C2N1CCN(C)CC1` [olanzapine], the “biofilm OD600” value [1] is reported as 0.943, the “biofilm OD600” value [2] is reported as 0.921 and the “biofilm OD600” value [3] is reported as 0.999 ± 0.027. The “biofilm OD600” value [4] was 0.974 ± 0.04.
In the case of `Fc1ccc([C@@H]2CCNC[C@H]2COc2ccc3c(c2)OCO3)cc1` [paroxetine hydrochloride], the “biofilm OD600” value [5] is reported as 1.02, the “biofilm OD600” value [6] is reported as 1.05 and the “biofilm OD600” value [1] is reported as 0.932. The “biofilm OD600” value [7] was 0.95, the “biofilm OD600” value [2] was 0.926 and the “biofilm OD600” value [3] was 0.9497 ± 0.0011. For the same compound, the “biofilm OD600” value [4] was 0.509 ± 0.05, the “biofilm OD600” value [8] was 0.62 and the “biofilm OD600” value [9] was 0.565.
In the case of `NC(=O)NC(=O)Cc1ccccc1` [phenacemide], the “biofilm OD600” value [1] is reported as 1.05, the “biofilm OD600” value [2] is reported as 0.929 and the “biofilm OD600” value [3] is reported as 1.015 ± 0.0049. The “biofilm OD600” value [4] was 1.02 ± 0.065.
For `C=CC1=C(C)c2cc3[nH]c(cc4nc(cc5[nH]c(cc1n2)c(C)c5CCC(=O)O)C(CCC(=O)O)=C4C)c(C)c3C=C` [protoporphyrin ix], the “biofilm OD600” value [1] was 1.04, the “biofilm OD600” value [2] was 0.941 and the “biofilm OD600” value [3] was 1.21 ± 0.082. The “biofilm OD600” value [4] was 1.65 ± 0.22.
For `CCOC(=O)[C@H](CCc1ccccc1)N[C@@H](C)C(=O)N1Cc2ccccc2C[C@H]1C(=O)O` [quinapril hydrochloride], the “biofilm OD600” value [1] was 1.07, the “biofilm OD600” value [2] was 0.946 and the “biofilm OD600” value [3] was 1 ± 0.022. For the same compound, the “biofilm OD600” value [4] was 1.01 ± 0.033.
With `COCCCOc1ccnc(C[S+]([O-])c2nc3ccccc3[nH]2)c1C` (centres undefined) [rabeprazole sodium] the “biofilm OD600” value [5] was 0.998, the “biofilm OD600” value [6] was 1.1 and the “biofilm OD600” value [1] was 1.06. The “biofilm OD600” value [7] was 1.08, the “biofilm OD600” value [2] was 0.914 and the “biofilm OD600” value [3] was 0.936 ± 0.049. For the same compound, the “biofilm OD600” value [4] was 1 ± 0.022, the “biofilm OD600” value [8] was 1.01 and the “biofilm OD600” value [9] was 0.747.
With `CC(C)N1CCN(c2ccc(OCC3COC(Cn4cncn4)(c4ccc(Cl)cc4Cl)O3)cc2)CC1` (centres undefined) [terconazole] the “biofilm OD600” value [5] was 0.77, the “biofilm OD600” value [6] was 0.76 and the “biofilm OD600” value [1] was 0.387. For the same compound, the “biofilm OD600” value [7] was 0.728, the “biofilm OD600” value [2] was 0.269 and the “biofilm OD600” value [3] was 0.9787 ± 0.008. For the same compound, the “biofilm OD600” value [4] was 0.55 ± 0.032, the “biofilm OD600” value [8] was 0.568 and the “biofilm OD600” value [9] was 0.403.
With `Clc1ccc(C(Cn2ccnc2)OCc2ccsc2Cl)c(Cl)c1` (centres undefined) [tioconazole] the “biofilm OD600” value [5] was 0.768, the “biofilm OD600” value [6] was 0.714 and the “biofilm OD600” value [1] was 0.341. For the same compound, the “biofilm OD600” value [7] was 0.675, the “biofilm OD600” value [2] was 0.284 and the “biofilm OD600” value [3] was 0.8317 ± 0.0059. The “biofilm OD600” value [4] was 0.473 ± 0.032, the “biofilm OD600” value [8] was 0.491 and the “biofilm OD600” value [9] was 0.312.
`C[C@]12C=CC(=O)C=C1CC[C@H]1[C@@H]3C[C@@H](O)[C@](O)(C(=O)CO)[C@@]3(C)C[C@H](O)[C@@]12F` [triamcinolone] was tested, and the “biofilm OD600” value [1] was 1, the “biofilm OD600” value [2] was 0.879 and the “biofilm OD600” value [3] was 1.03 ± 0.034. The “biofilm OD600” value [4] was 1 ± 0.014.
`CC(C)[C@H](N)C(=O)OCCOCn1cnc2c(=O)nc(N)[nH]c21` [valacyclovir hydrochloride] was tested, and the “biofilm OD600” value [1] was 1.1, the “biofilm OD600” value [2] was 0.844 and the “biofilm OD600” value [3] was 1 ± 0.024. For the same compound, the “biofilm OD600” value [4] was 0.982 ± 0.047.
`Cc1ccc(-c2nc3ccc(C)cn3c2CC(=O)N(C)C)cc1` [zolpidem] was tested, and the “biofilm OD600” value [1] was 0.924, the “biofilm OD600” value [2] was 0.858 and the “biofilm OD600” value [3] was 1.005 ± 0.0066. For the same compound, the “biofilm OD600” value [4] was 0.981 ± 0.055.
